Laboratory results as given in the supplement of paper PMC10307832.

Columns and labels:
Assay in all cases: relative viability (nuclei count vs DMSO), 5 days (fraction); higher = more cells survive
[1] = compound: O=C(/C=C/c1ccccc1)NC(NC(=S)Nc1cccc2cccnc12)C(Cl)(Cl)Cl [Salubrinal] + CCNC(=O)c1noc(-c2cc(C(C)C)c(O)cc2O)c1-c1ccc(CN2CCOCC2)cc1 [Luminespib] (partner 0.01 µM)
Method in brief: (§1)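 Lung cancer cell lines were pin-tool dosed in 1536-well plates on the day after seeding, with either a lone drug or a fixed anchor-drug dose plus five library-drug doses (not always all listed) in √10 steps. Nuclei were counted on 4× images after 5 days. Relative viability is the ratio of treated-well to vehicle-well nuclei counts, with each value a median of duplicate plates.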

[2] = compound: O=C(/C=C/c1ccccc1)NC(NC(=S)Nc1cccc2cccnc12)C(Cl)(Cl)Cl [Salubrinal] + Cc1nc(NC(=O)N2CCC[C@H]2C(N)=O)sc1-c1ccnc(C(C)(C)C(F)(F)F)c1 [Alpelisib] (partner 2 µM)
Method in brief: as §1

[3] = compound: Cc1ccc2nc(NCCN)c3ncc(C)n3c2c1 + N=C(N)NC(=N)NCCc1ccccc1 [Phenformin] (partner 250 µM)
Method in brief: as §1

[4] = compound: Cc1ccc2nc(NCCN)c3ncc(C)n3c2c1 + CC1(C)CCC(c2ccc(Cl)cc2)=C(CN2CCN(c3ccc(C(=O)NS(=O)(=O)c4ccc(N[C@H](CCN5CCOCC5)CSc5ccccc5)c(S(=O)(=O)C(F)(F)F)c4)cc3)CC2)C1 [Navitoclax] (partner 0.5 µM)
Method in brief: as §1

Cell Line | relative viability ([1]; first compound 0.08 µM) | relative viability ([1]; first compound 0.253 µM) | relative viability ([1]; first compound 0.8 µM) | relative viability ([1]; first compound 2.53 µM) | relative viability ([1]; first compound 8 µM) | relative viability ([2]; first compound 0.08 µM) | relative viability ([2]; first compound 0.253 µM) | relative viability ([2]; first compound 0.8 µM) | relative viability ([2]; first compound 2.53 µM) | relative viability ([2]; first compound 8 µM) | relative viability ([3]; first compound 0.04 µM) | relative viability ([3]; first compound 0.1265 µM) | relative viability ([3]; first compound 0.4 µM) | relative viability ([3]; first compound 1.265 µM) | relative viability ([3]; first compound 4 µM) | relative viability ([4]; first compound 0.04 µM) | relative viability ([4]; first compound 0.1265 µM) | relative viability ([4]; first compound 0.4 µM) | relative viability ([4]; first compound 1.265 µM) | relative viability ([4]; first compound 4 µM)
201T | 1.06 | 1.05 | 1.11 | 1.09 | 1.07 | 1.07 | 0.999 | 1.05 | 1.02 | 1.01 | 0.46 | 0.417 | 0.452 | 0.465 | 0.453 | 1.25 | 1.22 | 1.14 | 1.17 | 1.23
A549 |  |  |  |  |  | 0.726 | 0.806 | 0.755 | 0.76 | 0.616 | 0.209 | 0.199 | 0.166 | 0.111 | 0.118 | 1.27 | 1.25 | 1.37 | 1.2 | 0.955
A-427 | 1.04 | 0.696 | 1.07 | 0.8 | 1.2 | 1.06 | 1.16 | 1.17 | 1.16 | 1.15 | 0.388 | 0.308 | 0.35 | 0.265 | 0.296 | 0.914 | 0.864 | 0.946 | 1.02 | 0.968
ABC-1 | 0.559 |  | 0.8 | 0.473 | 0.728 | 1 | 0.952 | 1.2 | 1 | 1.12 | 0.236 | 0.27 | 0.297 | 0.248 | 0.226 |  |  |  |  | 
BEN | 0.53 | 0.323 | 0.425 | 0.354 | 0.265 | 1.23 | 0.82 | 1.3 | 1 | 1.03 | 0.288 | 0.265 | 0.293 | 0.247 | 0.296 | 0.0603 | 0.0647 | 0.0665 | 0.0492 | 0.0759
CAL-12T | 0.393 | 0.224 | 0.428 | 0.449 | 0.518 | 1.6 | 0.712 | 1.31 | 1.17 | 1.02 | 0.567 | 0.491 | 0.536 | 0.59 | 0.542 | 1.26 | 1.14 | 1.25 | 1.33 | 1.17
COR-L23 | 0.933 | 0.612 | 0.587 | 0.773 | 0.728 | 0.908 | 0.792 | 0.875 | 0.965 | 0.631 | 0.464 | 0.448 | 0.45 | 0.468 | 0.37 | 1.05 | 0.944 | 1.1 | 0.973 | 0.886
COR-L 105 | 0.7 | 0.699 | 0.761 | 0.812 | 0.738 | 1.01 | 0.906 | 1.04 | 1.06 | 0.831 | 0.647 | 0.555 | 0.502 | 0.487 | 0.425 | 0.809 | 0.802 | 0.802 | 0.899 | 0.698
Calu-6 |  |  |  |  |  | 0.94 | 0.936 | 1.07 | 1.04 | 0.942 |  |  |  |  |  | 0.829 | 0.799 | 1.05 | 0.807 | 0.321
ChaGo-K-1 | 0.633 | 0.581 | 0.604 | 0.437 | 0.588 |  |  |  |  |  | 0.534 | 0.544 | 0.485 | 0.412 | 0.435 | 0.983 | 1.15 | 0.913 | 0.976 | 0.782
EBC-1 |  |  |  |  |  | 0.869 | 0.952 | 0.976 | 0.811 | 0.736 |  |  |  |  |  | 0.388 | 0.393 | 0.327 | 0.334 | 0.191
EKVX | 0.902 | 0.969 | 0.839 | 0.86 | 0.891 | 1.14 | 0.729 | 1.01 | 0.887 | 0.88 | 0.25 | 0.236 | 0.241 | 0.239 | 0.248 | 1.1 | 0.964 | 0.924 | 0.992 | 0.883
EMC-BAC-2 | 1.26 | 0.835 | 1.28 | 1.16 | 1.11 | 0.802 | 0.709 | 0.786 | 0.82 | 0.702 | 0.518 | 0.562 | 0.499 | 0.536 | 0.54 | 1.17 | 1.18 | 1.06 | 1.15 | 1.17
EPLC-272H | 0.382 | 0.547 | 0.156 | 0.275 | 0.164 | 1.01 | 0.798 | 1.07 | 0.996 | 0.787 | 0.317 | 0.397 | 0.383 | 0.373 | 0.294 | 1.01 | 1.09 | 1.17 | 1.04 | 0.93
H3255 | 0.939 | 0.948 | 1.14 | 0.847 | 0.786 | 0.913 | 0.676 | 0.762 | 0.693 | 0.769 | 0.396 | 0.343 | 0.396 | 0.355 | 0.382 | 0.666 | 0.479 | 0.638 | 0.535 | 0.469
HARA | 0.848 | 0.688 | 1.08 | 0.487 | 0.496 | 0.948 | 0.931 | 0.848 | 0.937 | 0.78 | 0.437 | 0.449 | 0.388 | 0.342 | 0.453 | 1.16 | 1.15 | 1.14 | 1.08 | 1.21
HCC-15 | 0.363 | 0.294 | 0.245 | 0.468 | 0.206 | 0.988 | 0.789 | 0.994 | 0.94 | 0.945 | 0.464 | 0.501 | 0.48 | 0.429 | 0.379 | 0.702 | 0.732 | 0.684 | 0.677 | 0.675
HCC-44 | 1.32 | 1.08 | 1.09 | 1.02 | 0.894 | 0.904 | 0.758 | 0.806 | 0.84 | 0.671 | 0.186 | 0.247 | 0.157 | 0.184 | 0.146 | 1.1 | 0.901 | 0.951 | 0.829 | 0.937
